Reference: the NIST ThermoML archive (doi:10.1021/je020154p)
± gives the expanded uncertainty stated by the source.

Settings: Liquid

Structure (SMILES)	vapor or sublimation pressure (268.15 K) [kPa]	vapor or sublimation pressure (278.15 K) [kPa]	vapor or sublimation pressure (283.15 K) [kPa]	vapor or sublimation pressure (288.15 K) [kPa]	vapor or sublimation pressure (298.15 K) [kPa]	vapor or sublimation pressure (308.15 K) [kPa]	vapor or sublimation pressure (318.15 K) [kPa]
FCF [difluoromethane]	695.4 ± 2.1	952 ± 2.6	1102.2 ± 3	1281.2 ± 3.4	1685.6 ± 4.5	2185.2 ± 5.7	2794.8 ± 7.2
CCC [propane]	407.9 ± 1.5	549.4 ± 1.8	636.4 ± 2	735 ± 2.2	954.8 ± 2.7	1213 ± 3.3	1530.8 ± 4.1
